Reference: patent US6492124B1, “Trance activated signal transduction pathways in osteoclasts” (The Rockefeller University, priority 1999, dated 2002)

Columns and labels:
Format in all cases: cell-based, mouse
mature osteoclasts = test: Osteoclast survival assay (TRAP solution assay); conditions: 24 hours; TRANCE 5 μg/ml or CSF-1 10 ng/ml
Protocol: TRAP solution assays were performed and percent survival calculated. The experiment was performed in triplicate and the mean values with positive standard deviations are shown. […] (E) Mature osteoclasts were washed extensively and then cultured for an additional 24 hr in media without (−) or with TRANCE (5 μg/ml; +) in the absence or presence of increasing doses (200 nM and 800 nM) of LY294002. TRAP solution assays were performed and percent survival was as described in Experimental Procedures. The experiment was performed in triplicate and the mean values with positive standard deviations are shown.
Osteoclast survival assays. In vitro differentiated mature osteoclasts were washed 3 times in media then further cultured for 24 hr in media alone (control) or in media with TRANCE (5 μg/ml) or CSF-1 (10 ng/ml) in the presence or absence of LY294002 as indicated.
Specific cell survival (%)=(A405, 24 hr−A405. background)*100/(A405, 0 hr−A405, background)

p44/42 ERK = p44/42 ERK phosphorylation in osteoclasts and dendritic cells (Western blot); conditions: after 20 min of TRANCE stimulation
Protocol: FIG. 1. TRANCE activates p44/42 ERK, NF-κB and PKB in osteoclasts and dendritic cells. (A) Mature bone marrow-derived osteoclasts were stimulated for the indicated times with recombinant hCD8-TRANCE (TRANCE; 1 μg/ml). Levels of phosphorylated forms of p44/p42 ERK (p44 ERK^P and p42 ERK^P), IκBα (IκB-α^P) and PKB (PKB^P) in whole cell extracts were determined using phospho-peptide-specific antibodies as indicated in the figure. The membranes were stripped and incubated with antibodies against the p44/p42 ERK, IκB-α, and PKB as indicated to confirm that similar amounts of whole cell extracts were analyzed. Note the decrease of IκB-α after 10 min of treatment due to its degradation. (B) as in (A) except the use of mature bone marrow-derived dendritic cells instead of osteoclasts.
Cell stimulation, cell transfection and in vitro assays. In vitro differentiated mature dendritic cells, macrophages and osteoclasts were washed to remove exogenous growth factors, cultured in media with low serum (0.5% FCS, 6 hours), then stimulated by adding various cytokines in the presence or absence of inhibitors for various times as indicated. After stimulation, the cells were washed in ice-cold PBS, and subjected to Western blot analysis or immunoprecipitation as described below. […]

JNK = JNK activation measured by its phosphorylation in osteoclasts and dendritic cells; conditions: TRANCE, data not shown
Protocol: Cell stimulation, cell transfection and in vitro assays. In vitro differentiated mature dendritic cells, macrophages and osteoclasts were washed to remove exogenous growth factors, cultured in media with low serum (0.5% FCS, 6 hours), then stimulated by adding various cytokines in the presence or absence of inhibitors for various times as indicated. After stimulation, the cells were washed in ice-cold PBS, and subjected to Western blot analysis or immunoprecipitation as described below.
For Western blotting, whole-cell extracts (20 μg of total protein), immunoprecipitates or kinase reactions were resolved on SDS-PAGE, electro-blotted to PVDF membranes (Immobilon-P, Millipore) according to standard methods (Maniatis, et al., Molecular Cloning: A Laboratory Manual (Cold Spring Harbor Laboratory, New York) 1989), probed with antibodies according to the manufacturer's protocol, and visualized using an immunodetection system. Stripping was performed by incubating the blots in stripping buffer (62.5 mM Tris pH 6.8, 2% SDS, 100 mM β-mercaptoethanol) for 30 min at 55° C.

c-Src = c-Src immunoprecipitate in vitro kinase assay with SAM68 after TRANCE stimulation of cells
Protocol: FIG. 3. c-Src is required for TRANCE-induced PKB activation and osteoclast survival. (A) c-Src was immunoprecipitated from osteoclasts, dendritic cells and macrophages stimulated with TRANCE (1 μg/ml) for the indicated times using an anti-c-Src-specific monoclonal antibody (327). PTK activity of the c-Src immunprecipitates were measured in vitro using SAM68, a PTK specific substrate. The degree of SAM68 phosphorylation was determined by Western blot analysis using an anti-phospho-tyrosine antibody (4G10) and densitometry. Note that c-Src kinase activity was not detectable in TRANCE-treated macrophages most likely due to low levels of c-Src in these cells (Lacey, et al., supra, 1998). (B) Osteoclasts derived from wild type and c-Src deficient mice were stimulated with TRANCE (5 μg/ml) for 10 min and the levels of phosphorylated PKB (PKB^P), total PKB, and total IκBα were determined as in FIG. 1. […] TRAP solution assays were performed and percent survival calculated. […] Osteoclasts were detected by TRAP solution assays. […]
FIG. 5. […] PTK activity of the c-Src immunoprecipitates was measured by in vitro kinase assays using SAM68 as a PTK substrate. The degree of SAM68 phosphorylation (SAM68^P) was determined by Western blot analysis using a phospho-tyrosine specific antibody (4G10) followed by densitometry. […] The degree of SAM68 phosphorylation (SAM68^P) was determined as in (A). […]

## TNF-related activation-induced cytokine [TRANCE]
Mature osteoclasts
  cytokine-promoted survival in c-Src−/− osteoclasts compared to wild-type: reduced
p44/42 ERK
  ERK phosphorylation: transiently induced
JNK
  JNK activation as measured by its phosphorylation: not detected
c-Src; TRANCE-treated macrophages
  c-Src kinase activity: no detectable
c-Src; osteoclasts and dendritic cells, TRANCE 1 μg/ml
  induction of c-Src kinase activity: approximately 2 fold
